Where a chain is given by its changes, count along the chain named. Read-outs that look alike come from different tables or passages of the source.
What was measured:
Placenta wild type hTrxR [1] = target: T1, Placenta wild type hTrxR (Homo sapiens, UniProt Q16881); assay: hTrxR DTNB assay; assay type: biochemical
T1 sequence (Q16881 1-499 isoform Q16881-5): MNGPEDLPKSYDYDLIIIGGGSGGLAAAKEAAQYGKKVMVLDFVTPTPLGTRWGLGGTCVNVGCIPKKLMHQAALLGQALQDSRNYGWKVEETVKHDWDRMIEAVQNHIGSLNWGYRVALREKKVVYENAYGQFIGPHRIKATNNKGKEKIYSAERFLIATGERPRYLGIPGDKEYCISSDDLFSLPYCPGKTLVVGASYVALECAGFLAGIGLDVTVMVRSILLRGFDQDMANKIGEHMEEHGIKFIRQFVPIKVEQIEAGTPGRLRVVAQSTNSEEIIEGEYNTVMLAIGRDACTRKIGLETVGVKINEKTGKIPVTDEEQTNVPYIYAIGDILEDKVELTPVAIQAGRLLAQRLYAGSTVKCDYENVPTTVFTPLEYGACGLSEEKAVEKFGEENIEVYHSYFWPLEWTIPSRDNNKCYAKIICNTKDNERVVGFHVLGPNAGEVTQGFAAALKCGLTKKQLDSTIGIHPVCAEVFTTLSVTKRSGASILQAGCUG

[2] = target: T2, Schistosoma mansoni thioredoxin glutathione reductase (SmTGR) (Schistosoma mansoni, UniProt Q962Y6); assay: SmTGR DTNB assay; assay type: biochemical
T2 sequence (Q962Y6 1-598): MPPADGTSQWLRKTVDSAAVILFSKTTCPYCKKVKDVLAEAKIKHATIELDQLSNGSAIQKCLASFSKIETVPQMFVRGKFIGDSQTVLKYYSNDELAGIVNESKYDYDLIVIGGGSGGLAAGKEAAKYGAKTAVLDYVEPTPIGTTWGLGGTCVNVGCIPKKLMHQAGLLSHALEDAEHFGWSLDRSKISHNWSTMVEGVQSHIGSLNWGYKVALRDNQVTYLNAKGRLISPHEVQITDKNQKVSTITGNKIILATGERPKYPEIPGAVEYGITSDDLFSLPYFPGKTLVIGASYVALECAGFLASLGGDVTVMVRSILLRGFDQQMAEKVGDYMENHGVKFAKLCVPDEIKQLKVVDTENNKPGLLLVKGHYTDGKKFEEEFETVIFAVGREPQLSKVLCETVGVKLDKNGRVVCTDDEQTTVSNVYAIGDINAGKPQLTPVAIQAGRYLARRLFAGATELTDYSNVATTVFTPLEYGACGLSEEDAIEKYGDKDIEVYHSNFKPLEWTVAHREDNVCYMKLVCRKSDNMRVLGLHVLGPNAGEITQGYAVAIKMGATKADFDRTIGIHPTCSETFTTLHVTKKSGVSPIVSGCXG

Sec498Cys TrxR = target: T3, Sec498Cys TrxR (Homo sapiens, UniProt Q16881); assay: hTrxR mutant DTNB assay; assay type: biochemical
T3 sequence (Q16881 with tags, fused parts or gaps isoform Q16881-5): T1 sequence (Q16881 1-499 isoform Q16881-5) with U498C

S. mansoni worms = assay: Antischistosomal activity against adult, ex vivo worms; assay type: cell-based, Schistosoma mansoni; settings: for antischistosomal activity against cultured ex vivo worms: 50 μM compound alone
[3] = target: T4, human glutathione reductase (hGR) (Homo sapiens, UniProt P00390); assay: hGR assay; assay type: biochemical
T4 sequence (P00390 1-479 isoform P00390-2): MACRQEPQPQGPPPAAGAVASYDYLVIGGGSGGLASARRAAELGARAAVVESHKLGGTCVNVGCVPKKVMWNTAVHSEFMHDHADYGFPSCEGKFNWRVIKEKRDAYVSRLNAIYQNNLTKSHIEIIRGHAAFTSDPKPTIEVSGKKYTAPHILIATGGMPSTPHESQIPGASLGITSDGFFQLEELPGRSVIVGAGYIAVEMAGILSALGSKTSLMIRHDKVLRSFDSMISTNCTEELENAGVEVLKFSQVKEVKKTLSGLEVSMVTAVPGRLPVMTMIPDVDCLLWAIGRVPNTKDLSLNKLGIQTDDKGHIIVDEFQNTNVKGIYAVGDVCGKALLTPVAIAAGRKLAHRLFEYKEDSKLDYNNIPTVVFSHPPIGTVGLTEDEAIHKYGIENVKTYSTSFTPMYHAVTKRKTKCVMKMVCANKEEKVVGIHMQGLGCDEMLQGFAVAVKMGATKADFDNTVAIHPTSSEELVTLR

Placenta wild type hTrxR [4] = target: T1, Placenta wild type hTrxR; assay: hTrxR Trx assay; assay type: biochemical; settings: for IC50: IC50 hTrxR, text summary spanning the Trx assay and the DTNB assay; for IC50 fold higher for hTrxR than for SmTGR: selectivity hTrxR versus SmTGR
[5] = Cyclic voltammetry of menadione derivatives; assay type: physicochemical; settings: for Epa1 / Epc2 / Ipc1/Ipa1 / E^1½ / ΔEp (first wave): DMSO; for Epa1 / Epc2: 0.1 M n-Bu4NPF6, v = 200 mV s^−1, reference KCl(3 M)/Ag/AgCl; for Epa1 / Ipc1/Ipa1 / E^1½: first wave; for Epc2 / E^2½ / Epa2 / Ipc2/Ipa2 / ΔEp (second wave): second wave; for Ipc1/Ipa1 / ΔEp (first wave): 0.1 M n-Bu4NPF6, v = 200 mV s^−1; for E^1½ / E^2½: E½ = (Epc+Epa)/2; for E^1½: 0.1 M n-Bu4NPF6, reference KCl(3 M)/Ag/AgCl; for E^2½ / Epa2 / Ipc2/Ipa2 / ΔEp (second wave): irr: irreversible reduction; for ΔEp (first wave) / ΔEp (second wave): ΔE = Epa-Epc; for ΔE½: ΔE½ = E^1½-E^2½
[6] = target: T2, Schistosoma mansoni thioredoxin glutathione reductase (SmTGR)
[7] = Glutathionylation reaction kinetics; assay type: physicochemical; settings: pH 7.5
[8] = Cytotoxicity against human MRC-5 cells; assay type: cell-based; settings: human lung MRC-5 fibroblasts (MRC-5SV2 cells)
[9] = 50 μM with hemoglobin 10 μM, 22h incubation

SMILES | IC50 (Placenta wild type hTrxR [1]) | IC50 [2] | IC50 (Sec498Cys TrxR) | IC50 [3] | IC50 (Placenta wild type hTrxR [4]) | Epa1 [5] | Epc2 [5] | Ipc1/Ipa1 [5] | E^1½ [5] | E^2½ [5] | Epa2 [5] | Ipc2/Ipa2 [5] | ΔEp (first wave) [5] | ΔEp (second wave) [5] | antischistosomal activity against cultured ex vivo worms (S. mansoni worms) | other results
CC1=C(COc2cccc(C(F)(F)F)c2)C(=O)c2ccccc2C1=O [Compound 6, 2-Methyl-3-((3-(trifluoromethyl)phenoxy)methyl)naphthalene-1,4-dione] | 1500 nM | 166 nM | > 50000 nM | 600 nM | 1500 to 3000 nM |  |  |  |  |  |  |  |  |  | inactive | IC50 fold higher for hTrxR than for SmTGR (Placenta wild type hTrxR [4]): around 10 fold
COc1c(F)cc(OCC2=C(C)C(=O)c3ccccc3C2=O)cc1F [Compound 3, 2-((3,5-Difluoro-4-methoxyphenoxy)methyl)-3-methylnaphthalene-1,4-dione] | 2000 nM | 407 nM | > 100000 nM | > 25000 nM | 2000 nM |  |  |  |  |  |  |  |  |  | most potent | 
CC1=C(COc2ccc(C#N)cc2)C(=O)c2ccccc2C1=O [Compound 2, 4-((3-Methyl-1,4-dioxo-1,4-dihydronaphthalen-2-yl)methoxy)benzonitrile] | 1200 nM | 462 nM | 6000 nM | 8500 nM | 1200 to 1500 nM | −0.492 V | −1.154 V | 2.29 | −0.556 V | −1.127 V | −1.100 V | 2 | 128 mV | 54 mV | (moderately) active | ΔE½ [5]: 571 mV; female worms killed (S. mansoni worms; [9]): 100%; male worms killed (S. mansoni worms; [9]): 50%
CC1=C(COc2ccc(Cl)cc2)C(=O)c2ccccc2C1=O [Compound 4, 2-((4-Chlorophenoxy)methyl)-3-methylnaphthalene-1,4-dione] | 700 nM | 457 nM | > 100000 nM | 5500 nM | 700 nM |  |  |  |  |  |  |  |  |  |  | 
CC1=C(COc2ccc(C(=O)O)cc2)C(=O)c2ccccc2C1=O [Compound 1, 4-((3-Methyl-1,4-dioxo-1,4-dihydronaphthalen-2-yl)methoxy)benzoic acid] | 3000 nM | 482 nM | 40000 nM | 2300 nM | 2000 to 3000 nM | −0.532 V | −1.265 V | 1.27 | −0.580 V | irr | irr | irr | 96 mV | irr | able to kill cultured adult worms | IC50 at 3 days [8]: 6550 nM
O.O.O.O=C([O-])[C@H]([O-])[C@@H]([O-])C(=O)[O-].O=C([O-])[C@H]([O-])[C@@H]([O-])C(=O)[O-].[K+].[K+].[Sb+3].[Sb+3] [PAT, potassium antimonyl tartrate, reference compound] |  |  |  |  |  |  |  |  |  |  |  |  |  |  |  | IC50 ([2]; read-out: IC50 SmTGR assay, pH 7, 25°C, 100 μM NADPH, 3 mM DTNB): 173 nM; dead worms (S. mansoni worms; drug reference, after two days): 100%

The next lines start with results.

IC50 (Placenta wild type hTrxR [1]) | IC50 [2] | IC50 (Sec498Cys TrxR) | IC50 [3] | IC50 (Placenta wild type hTrxR [4]) | Epa1 [5] | Epc2 [5] | Ipc1/Ipa1 [5] | E^1½ [5] | E^2½ [5] | Epa2 [5] | Ipc2/Ipa2 [5] | ΔEp (first wave) [5] | ΔEp (second wave) [5] | SMILES | antischistosomal activity against cultured ex vivo worms (S. mansoni worms) | other results
1500 nM | 200 nM | > 50000 nM | 12000 nM | 800 to 1500 nM | −0.506 V | −1.132 V | 2.92 | −0.563 V | −1.126 V | −1.120 V | 1.75 | 114 mV |  | COc1ccc(OCC2=C(C)C(=O)c3ccccc3C2=O)cc1C(F)(F)F [Compound 7, 2-((4-Methoxy-3-(trifluoromethyl)phenoxy)methyl)-3-methylnaphthalene-1,4-dione] | active | ΔE½ [5]: 563 mV; second order rate constant ki/KI [6]: 1180 M⁻¹ s⁻¹; survival rates in the presence versus absence of RBCs after 24 hours (S. mansoni worms; 50 μM, human red blood cells 10 μl/well, 24 hours): identical; dead parasites in the absence versus presence of RBCs after 48 hours (S. mansoni worms; 50 μM, human red blood cells 10 μl/well, 48 hours): more parasites were dead in the absence of RBCs than in the presence of RBCs; IC50 fold higher for hTrxR than for SmTGR (Placenta wild type hTrxR [4]): around 5 fold
14 nM | 144 nM | 370 nM | 2100 nM | 13 to 14 nM | −0.244 V |  | 3.31 | −0.329 V |  |  |  | 170 mV |  | N#Cc1ccc(OCC2=C(C(F)F)C(=O)c3ccccc3C2=O)cc1 [Compound 8, 4-((3-(Difluoromethyl)-1,4-dioxo-1,4-dihydronaphthalen-2-yl)methoxy)benzonitrile] | inactive | decrease of the k2 values compared to the difluoromenadione itself [7]: ~10 fold; IC50 at 3 days [8]: 6700 nM; killing of worms whether RBCs were present or not (S. mansoni worms; 50 μM, with or without human red blood cells (10 μl/well)): no effect on killing the worms
800 nM | 784 nM | > 100000 nM | > 5000 nM | 800 nM |  | −1.158 V | 1.89 |  | irr | irr | irr | 119 mV | irr | CC1=C(COc2ccc(Br)cc2)C(=O)c2ccccc2C1=O [Compound 5, 2-((4-Bromophenoxy)methyl)-3-methylnaphthalene-1,4-dione] |  | 

Source: publication PMC4804716 (The FEBS journal, 2015)
